Measurements as given in PubChem BioAssay (NCI).
Several values for one entry are separate records, joined by “and”; a condition that tells them apart may be missing. Identical values can stand only once.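 Interpolation was linear, between the two tested concentrations surrounding the appropriate level; five concentrations were tested over 48 hours in 96-well plates. Abbreviation: GI50, concentration required for 50% inhibition of growth. TGI: concentration producing complete growth inhibition.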

Columns and labels:
Experiment in all cases: NCI anticancer screen, dose series, 48 h
M14 melanoma = tested on: M14 melanoma
NCI-H23 lung = tested on: NCI-H23 lung
SF-539 CNS = tested on: SF-539 CNS
SF-268 CNS = tested on: SF-268 CNS
SK-MEL-28 melanoma = tested on: SK-MEL-28 melanoma
UO-31 renal = tested on: UO-31 renal
COLO 205 colon = tested on: COLO 205 colon
MDA-MB-231 breast = tested on: MDA-MB-231 breast
DU-145 prostate = tested on: DU-145 prostate
HS 578T breast = tested on: HS 578T breast

Structure (SMILES) | TGI (M14 melanoma) | TGI (NCI-H23 lung) | TGI (SF-539 CNS) | TGI (SF-268 CNS) | TGI (SK-MEL-28 melanoma) | TGI (UO-31 renal) | TGI (COLO 205 colon) | TGI (MDA-MB-231 breast) | TGI (DU-145 prostate) | TGI (HS 578T breast) | GI50 (M14 melanoma) | GI50 (MDA-MB-231 breast) | GI50 (NCI-H23 lung) | GI50 (SF-539 CNS) | GI50 (SF-268 CNS) | GI50 (SK-MEL-28 melanoma) | GI50 (UO-31 renal) | GI50 (HS 578T breast) | GI50 (COLO 205 colon) | GI50 (DU-145 prostate)
Cc1ccc(SC(C)/C=C/NNC2=NC(c3ccccc3)C(c3ccccc3)=NN2)cc1 (stereo not given) | > 100 µM | > 100 µM | > 100 µM | > 100 µM | > 100 µM | 57.5 µM | > 100 µM | – | – | – | – | – | – | – | – | – | – | – | – | –
CC1=CC(/C=C(\C)CCCc2ccoc2)C2(OC(=O)C(C)=C2O)[C@H]2C1CC[C@@H]2C (stereo not given in full) | 60.9 µM | 67.2 µM | 36.8 µM | – | > 100 µM | 31 µM | 47 µM | – | – | – | – | – | – | – | – | – | – | – | – | –
O=[N+]([O-])c1nccn1CC(O)c1ccc(F)cc1 (stereo not given) | > 100 µM | > 100 µM | > 100 µM | > 100 µM | > 100 µM | > 100 µM | > 100 µM | – | – | – | – | – | – | – | – | – | – | – | – | –
O=Cc1cc2c(cc1-c1c(C=O)ccc3c1OCO3)OCO2 | > 10 µM | > 10 µM | > 10 µM | > 10 µM | > 10 µM | – | > 10 µM | > 10 µM | > 10 µM | > 10 µM | – | – | – | – | – | – | – | – | – | –
C=CC1CC12C(=O)C1OC2(C)C2C(=O)c3cc4ccccc4cc3C(=O)C12 (stereo not given) | > 100 µM | > 100 µM | 96.9 µM | > 100 µM | > 100 µM | > 100 µM | > 100 µM | 46.4 µM | – | 92 µM | 37.8 µM | 16 µM | 25.9 µM | 30.2 µM | 26.7 µM | 24.7 µM | 53.3 µM | 27 µM | 44.7 µM | –
C=C(C=O)[C@@H]1C2OC(=O)C(=C)[C@@H]2CC(O)[C@@]1(C)CC (stereo not given in full) | 19.1 µM | 13.3 µM | 23.6 µM | 71.4 µM | 12.5 µM | 45.8 µM | 11.7 µM | – | – | – | – | – | – | – | – | – | – | – | – | –
CC(O)C(N=Cc1ccccc1[O-])C(=O)[O-].CC(O)C(N=Cc1ccccc1[O-])C(=O)[O-].[Co+2] (stereo not given) | > 100 µM | > 100 µM | > 100 µM | > 100 µM | > 100 µM | > 100 µM | > 100 µM | – | – | – | > 100 µM | – | > 100 µM | > 100 µM | 29.9 µM | 31.9 µM | 76.5 µM | – | > 100 µM | –
O=S(O)CCCCSSCC(O)C(O)CSSCCCCS(=O)O (stereo not given) | 24.2 µM and 30.6 µM | 42.3 µM and > 100 µM | 69.7 µM and > 100 µM | 32.1 µM and 57.9 µM | 45.1 µM and > 100 µM | 67.3 µM and 79.5 µM | 29 µM and 39.5 µM | – | – | – | – | – | – | – | – | – | – | – | – | –
CCN(CC)CCOc1ccc(/C=C(\C#N)c2ccc(OCCN(CC)CC)cc2)cc1 | 19.9 µM | 42.6 µM | 20.6 µM | 53.9 µM | 32 µM | 31.2 µM | 23 µM | – | > 100 µM | – | – | – | – | – | – | – | – | – | – | –
CC(C)(C)OC(=O)NCC(=O)OCc1ccccc1 | > 100 µM | > 100 µM | > 100 µM | > 100 µM | > 100 µM | > 100 µM | > 100 µM | – | – | – | – | – | – | – | – | – | – | – | – | –
CCCCOC(=O)C1C(c2ccc(Cl)cc2)NC(c2ccc(Cl)cc2)C(C(=O)OCCCC)S1(=O)=O (stereo not given) | > 100 µM | > 100 µM | > 100 µM | > 100 µM | > 100 µM | > 100 µM | > 100 µM | – | – | – | – | – | – | – | – | – | – | – | – | –
COc1ccc(NC(=O)CCc2cc(-c3ccc(O)c(OC)c3)nc(NC#N)n2)cc1 | > 100 µM | > 100 µM | > 100 µM | > 100 µM | > 100 µM | > 100 µM | > 100 µM | – | – | – | – | – | – | – | – | – | – | – | – | –
O=[n+]1c2c(n([O-])c3ccccc31)CCCCCCCCCC2 | > 100 µM | > 100 µM | > 100 µM | > 100 µM | > 100 µM | > 100 µM | – | – | – | – | – | – | – | – | – | – | – | – | – | –
NC(=NCCCOc1ccc(Cl)cc1)Nc1ccc(C(F)(F)F)cc1 | 3.46 µM | 5.54 µM | – | 15.9 µM | – | 7.37 µM | 3.25 µM | – | 7.26 µM | 18.8 µM | 1.69 µM | – | 2.06 µM | – | 2.77 µM | – | 1.85 µM | 3.35 µM | 1.54 µM | 2.62 µM
COC(=O)c1cc2c3ccccc3n(C(C)=O)c2cn1 | > 100 µM | > 100 µM | > 100 µM | – | > 100 µM | > 100 µM | > 100 µM | – | – | – | – | – | – | – | – | – | – | – | – | –
CCCCCCCCCC/C=C/CC(=O)SCCNC(=O)CCNC(=O)[C@@H](O)C(C)(C)COP(=O)(O)OP(=O)(O)OCC1OC(n2cnc3c(N)ncnc32)C(O)C1OP(=O)(O)O (stereo not given in full) | > 10 µM | > 10 µM | > 10 µM | > 10 µM | > 10 µM | – | > 10 µM | > 10 µM | > 10 µM | > 10 µM | – | – | – | – | – | – | – | – | – | –
O=C1c2ccccc2C2(Br)C(=O)c3ccccc3C12 (stereo not given) | > 100 µM | > 100 µM | > 100 µM | > 100 µM | > 100 µM | > 100 µM | > 100 µM | – | – | – | – | – | – | – | – | – | – | – | – | –
COc1ccc(OC)c(NC(=O)C(=O)NNC(=O)c2sc(NNC(C)=O)nc2C)c1 | > 100 µM | 68.8 µM | 82.3 µM | 75.9 µM | > 100 µM | > 100 µM | – | – | – | – | – | – | – | – | – | – | – | – | – | –
COC(=O)C12C3C4C1C1C2C3C41C(=O)OC(C)(C)C (stereo not given) | > 100 µM | > 100 µM | > 100 µM | > 100 µM | > 100 µM | > 100 µM | > 100 µM | – | – | – | – | – | – | – | – | – | – | – | – | –
O=C(O)CNc1cc(-c2ccccc2)nc(NCC(=O)O)n1 | > 100 µM | > 100 µM | > 100 µM | – | > 100 µM | > 100 µM | > 100 µM | – | – | – | – | – | – | – | – | – | – | – | – | –
O=C1CN=C(C[N+](=O)[O-])c2ccccc21 | > 100 µM | > 100 µM | > 100 µM | > 100 µM | > 100 µM | > 100 µM | > 100 µM | – | – | – | – | – | – | – | – | – | – | – | – | –
CS(=O)(=O)N/N=C/CN1C(=O)c2ccccc2C1=O | > 100 µM | > 100 µM | > 100 µM | > 100 µM | > 100 µM | > 100 µM | > 100 µM | – | – | – | – | – | – | – | – | – | – | – | – | –
OCCN1CN(CCO)CN(c2nc(N3CN(CCO)CN(CCO)C3)nc(N3CN(CCO)CN(CCO)C3)n2)C1 | 3.55 ng/mL | 4.39 ng/mL | – | 2.04 ng/mL | – | 4.4 ng/mL | – | 1.83 ng/mL | – | 9.43 ng/mL | 1.36 ng/mL | 0.776 ng/mL | 1.42 ng/mL | – | – | – | 1.5 ng/mL | 3.08 ng/mL | – | –
